Assay [1] has as its system Jurkat cells. Description: Immunoblotting of caspase substrate proteolysis during apoptosis. In kind it is cell-based, human. The procedure: Jurkat cells at a density of 1×10^6 cells/ml were treated with etoposide (50 μM) for 0, 2, 4, 8, 12, and 24 hours prior to harvesting. Harvested cells were pelleted at 2,000×g and 25° C. for 5 minutes, washed twice with phosphate buffered saline, and lysed at a concentration of 2×10^7 cells/ml in 1.0% SDS, phosphate buffered saline, 100 μM Z-VAD-FMK, 100 μM E-64, 1 mM PMSF, 1 mM AEBSF, 5 mM EDTA, and 10 mM sodium butyrate. Whole cell lysates were sonicated to shear genomic DNA, normalized to a protein concentration of approximately 2 mg/ml, as determined by BCA assay (Pierce). Cell lysates for each apoptotic timepoint were then analyzed by SDS-PAGE and Western blot. Mouse monoclonal anti-caspase-3 (#9668) and rabbit polyclonal anti-HDAC3 (#2632) antibodies were purchased from Cell Signaling Technology. Mouse monoclonal anti-DFF45 (#611036) antibody was purchased from BD Transduction Laboratories. Goat polyclonal anti-N-Cor (#sc-1611) and rabbit polyclonal anti-HDAC7 (#sc-11412) antibodies were purchased from Santa Cruz Biotechnology. Rabbit polyclonal anti-TBLR1 (#A300-408A), rabbit polyclonal anti-SHARP (#A301-119A), and rabbit polyclonal anti-RBBP7 (#A300-959A) antibodies were purchased from Bethyl Laboratories. Rabbit polyclonal anti-SMRTe (#06-891) antibody was purchased from Millipore. Western blots were imaged using SuperSignal West Femto Substrate (Pierce) with a Fluor Chem SP imager (Alpha Innotech). DNA fragmentation of whole cell DNA was analyzed by agarose gel with the Apoptotic DNA Ladder Kit (Roche).

Assay [2] concerns Jurkat cells. Briefly: Subtiligase N-terminal labeling and LC/MS/MS degradomic analysis of apoptotic Jurkat cells. The class given is cell-based, human. The following applies: Jurkat cells treated with etoposide (50 μM, 12 hours).
Description: Normal cells were harvested for experiments at a density of 1×10^6 cells/ml. For apoptotic samples, cells at a density of 1×10^6 cells/ml were treated with etoposide (50 μM) for 12 hours prior to harvesting. Harvested cells (0.1 to 1 billion) were pelleted at 2,000×g and 25° C. for 5 minutes, washed twice with phosphate buffered saline, and lysed at a typical concentration of 2×10^8 cells/ml in 1.0% TRITON X-100 detergent, 100 mM BICINE pH 8.0, 100 μM Z-VAD-FMK, 100 μM E-64, 1 mM PMSF, 1 mM AEBSF, and 5 mM EDTA. […] Clarified supernatant was immediately used in ligation reactions at a protein concentration of approximately 20 mg/ml, as determined by Bradford assay (Bio-Rad).
Subtiligase (1 μM), biotinylated peptide ester (1 mM), and DTT (2 mM) were added to either control or apoptotic cell lysate. Ligation reactions were typically left to proceed at room temperature for 60 minutes. Samples were then denatured by direct addition of solid guanidine hydrochloride to a final concentration of 6 M, reduced by addition of neutralized TCEP (2 mM), heated at 95° C. for 15 minutes, cooled to room temperature, and alkylated by addition of iodoacetamide (6 mM) and incubation at room temperature in the dark for 1 hour. […]
The mark [3] stands for this setting: Jurkat cells, 50 μM etoposide, FIG. 5A.

Molecules are shown by their SMILES. Residues, ends and D or L forms follow the SMILES beside them. *: point of attachment. Cbz = O=C(OCc1ccccc1)*; CH2F = FC*

On to `COC(=O)C[C@H](NC(=O)[C@H](C)NC(=O)[C@@H](NC(=O)OCc1ccccc1)C(C)C)C(=O)CF` [Z-VAD(OMe)-fmk] (Cbz-Val-Ala-Asp(OMe)-CH2F), for which the “Cleavage of representative substrates HDAC7, Ku80, RCOR2, TBLR1, and UBP36 in presence of caspase inhibitor” value in the assay with Jurkat cells [1] (etoposide-treated Jurkat cells, FIG. 5B) was “blocked”.
Regarding `COc1cc([C@@H]2c3cc4c(cc3[C@@H](O[C@@H]3O[C@@H]5CO[C@@H](C)O[C@H]5[C@H](O)[C@H]3O)[C@H]3COC(=O)[C@H]23)OCO4)cc(OC)c1O` [etoposide], in the assay on Jurkat cells [1] (setting [3]), the “Proteolysis of CCTδ, Ku80, LCOR, and RBBP7 (time course, immunoblot)” value was “partial cleavage”; the “Proteolysis of HDAC6, HDAC7, N-CoR, RCOR2, SHARP, TBLR1, UBP5, and UBP36 (time course, immunoblot)” value is “full cleavage”. Further, in the assay on Jurkat cells [2] (large-scale (2D LC/MS/MS) experiments), the “N-termini identified in apoptotic cells derived from P1 aspartate cleavages” value came to 43%. Also, in the assay on Jurkat cells [2] (small-scale (1D LC/MS/MS) experiments), the “N-termini identified in apoptotic cells derived from P1 aspartate cleavages” value is recorded as 43%.

The record behind these values is US9493522B2, “Discovery of candidate biomarkers of in vivo apoptosis by global profiling of caspase cleavage sites” (THE REGENTS OF THE UNIVERSITY OF CALIFORNIA, priority 2008, dated 2016).
